Data as given in PMC5716070 (International Journal of Neuropsychopharmacology, 2017).
Values after ≈ are worked out from the molar mass of the structure shown. Values joined by “and” are separate entries in the source; they are usually repeats but may differ in a detail not shown here. Equal entries are not always repeated. Where two headings read alike, the source gives them in different places.

Assays:
[1] = system: SERT; settings: cited from earlier work
[2] = clinical; settings: human, plasma, po, 60 mg
[3] = system: NET; settings: cited from earlier work
[4] = clinical dose, ref Nogami et al., 2013

SMILES: CNCC[C@H](Oc1cccc2ccccc12)c1cccs1 [duloxetine]
- SERT occupancy ([1]; 20 mg, ref Takano et al., 2006): 71.3%
- SERT occupancy ([1]; 60 mg, ref Takano et al., 2006): 81.8%
- EC50 for SERT occupancy ([1]; ref Abanades et al., 2011): 0.00262 ± 0.00093 µg/mL
- EC50 for SERT occupancy ([1]; ref Takano et al., 2006): 0.0037 µg/mL
- SERT occupancy ([1]; single dose 40 mg, ref Takano et al., 2006): 80.6% and ~80%
- concentration at 6 h [2]: 80.8 ng/mL

SMILES: CCN(CC)C(=O)C1(c2ccccc2)CC1CN (stereo not shown) [milnacipran]
- SERT occupancy [1, 4]: low occupancy
- NET occupancy [3, 4]: low occupancy

SMILES: CNCCC=C1c2ccccc2CCc2ccccc21 [nortriptyline]
- EC50 (plasma drug concentration inducing 50% NET occupancy) ([3]; chronically administered 75–200 mg, patients with MDD, ref Takano et al., 2014): 0.0798 µg/mL (≈ 0.303 µM)
- EC50 (plasma drug concentration inducing 50% NET occupancy) ([3]; single low dose (10–75 mg), healthy human volunteers, ref Sekine et al., 2010): 0.0598 µg/mL (≈ 0.227 µM)
